Measurements published in PubChem BioAssay (NCI).
Values joined by “and” are separate entries in the source; they are usually repeats but may differ in a detail not shown here. Equal entries are not always repeated.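 How tested: cells in 96-well plates exposed to compound for 48 hours at five concentrations. GI50 is the concentration that inhibits growth by half. At the TGI there is no net growth.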

Assays:
Assay in all cases: NCI-60 cell line screen, 48 h
CCRF-CEM leukemia = test system: CCRF-CEM leukemia
IGROV1 ovarian = test system: IGROV1 ovarian
SF-539 CNS = test system: SF-539 CNS
HOP-18 NSCLC = test system: HOP-18 NSCLC
OVCAR-3 ovarian = test system: OVCAR-3 ovarian
COLO 205 colon = test system: COLO 205 colon
OVCAR-8 ovarian = test system: OVCAR-8 ovarian
DLD-1 colon = test system: DLD-1 colon
DU-145 prostate = test system: DU-145 prostate
PC-3 prostate = test system: PC-3 prostate

Compound | TGI (CCRF-CEM leukemia) | TGI (IGROV1 ovarian) | TGI (SF-539 CNS) | TGI (HOP-18 NSCLC) | TGI (OVCAR-3 ovarian) | TGI (COLO 205 colon) | TGI (OVCAR-8 ovarian) | TGI (DLD-1 colon) | GI50 (IGROV1 ovarian) | GI50 (SF-539 CNS) | GI50 (HOP-18 NSCLC) | GI50 (OVCAR-3 ovarian) | GI50 (COLO 205 colon) | GI50 (OVCAR-8 ovarian) | GI50 (DLD-1 colon) | GI50 (DU-145 prostate) | TGI (DU-145 prostate) | GI50 (CCRF-CEM leukemia) | GI50 (PC-3 prostate) | TGI (PC-3 prostate)
Cc1cc(C)cc(Sc2c([N+](=O)[O-])ncn2C)c1 | > 100 µM | 55.1 µM | 20.9 µM | 14.4 µM | 34.3 µM | 31.8 µM | 29.7 µM | 27.5 µM |  |  |  |  |  |  |  |  |  |  |  | 
Cc1cc(C(=O)N2CCN(Cc3ccccc3)CC2)c(C)o1 | > 100 µM | > 100 µM | > 100 µM | > 100 µM | > 100 µM |  | > 100 µM | > 100 µM |  |  |  |  |  |  |  |  |  |  |  | 
CCN(CC)CCNC(=O)c1cccc2cc3ccccc3nc12 | 41.3 µM | 60.7 µM | 16.9 µM | 88.5 µM | 61.5 µM | 20.2 µM | > 100 µM | 20.7 µM |  |  |  |  |  |  |  |  |  |  |  | 
CCC[CH2][Sn]([CH2]CCC)([O]C(=O)c1nccnc1N)[O]C(=O)c1nccnc1N |  | 2.68 µM | 2.3 µM | 3.8 µM | 2.45 µM | 2.1 µM | 2.45 µM | 2.12 µM | 1.33 µM | 1.09 µM | 2.32 µM | 1.21 µM | 0.899 µM | 1.21 µM | 0.876 µM |  |  |  |  | 
COC(=O)Nc1nc2cc3c(cc2s1)OCCO3 | > 50 µM | > 50 µM | > 50 µM |  | > 50 µM | > 50 µM | > 50 µM |  | > 50 µM | > 50 µM |  | > 50 µM | > 50 µM | > 50 µM |  | > 50 µM | > 50 µM | > 50 µM | > 50 µM | > 50 µM
C=C(C)[C@@H]1CCC2=C[C@@H](OC2=O)[C@@H](C(=C)C)C(=O)/C=C(/C)C(=O)C1 | 28.8 µM | > 100 µM | 95.4 µM |  | 57.8 µM | 56.8 µM | > 100 µM |  | 40.9 µM | 36.5 µM |  | 22.6 µM | 26.3 µM | 49 µM |  | 34.9 µM | > 100 µM | 4.78 µM | 8.79 µM | 39.3 µM
CC(=O)OC(C)(C)N=Nc1ccc(Br)cc1 | > 78.5 µM | > 100 µM | > 100 µM |  | > 100 µM | 1.03 µM | 64.1 µM |  |  |  |  |  |  |  |  |  | > 100 µM |  |  | > 100 µM
COc1cccc(C2C3=C(COC3=O)N(CCO)c3cc4c(cc32)OCCO4)c1 (stereo not given) | > 50 µM | 0.906 µM |  |  | 0.254 µM | 0.268 µM | > 50 µM |  | 0.0959 µM | 0.124 µM |  | 0.0878 µM | 0.108 µM | 0.22 µM |  | 0.157 µM | 0.65 µM | 0.151 µM | 0.12 µM | > 50 µM
CC1(C)CC2C=C(C=O)C3(C=O)CC3(C)C2C1 (stereo not given) | 1.15 µM | 4.68 µM | 3.51 µM |  | 2.27 µM | 4.25 µM | 6.1 µM |  |  |  |  |  |  |  |  |  | 17.8 µM |  |  | 4.33 µM
Nc1ccccc1NC(=O)c1ccc(CN2CCC/C(=C\c3cccc(Cl)c3)C2=O)cc1 | > 100 µM | 13.6 µM | 5.33 µM |  | 7.7 µM |  | > 100 µM |  | 0.337 µM | 0.695 µM |  | 0.406 µM | 0.157 µM | 0.334 µM |  | 0.432 µM | 25.7 µM | 0.866 µM | 0.463 µM | 14.1 µM
COc1ccc(C2=C(c3cc(OC)c(OC)c(OC)c3)C(=O)CC2)cc1 |  | > 100 µM | > 48.3 µM |  | 0.242 µM | 1.17 µM | > 100 µM |  | 0.58 µM | 0.189 µM |  | 0.0598 µM | 0.218 µM | 0.392 µM |  | 0.294 µM |  | 0.21 µM | 0.203 µM | > 100 µM
CN(C)CCCNc1nccc(-c2c(-c3ccc(F)cc3)nn3cc(C(F)(F)F)ccc23)n1 | > 25 µM | > 25 µM | > 25 µM |  | > 25 µM | 8.71 µM | > 25 µM |  | 10.2 µM | 15.5 µM |  | 8.88 µM | 4.23 µM | > 20.1 µM |  | > 16.6 µM | > 25 µM | 8.08 µM | 9.36 µM | > 25 µM
COC(=O)C1CCC(Nc2cccc(C(F)(F)F)c2)=N1 (stereo not given) | > 100 µM | > 100 µM |  | > 100 µM | > 100 µM | > 100 µM | > 100 µM | > 100 µM |  |  |  |  |  |  |  |  |  |  |  | 
CC1=C(/C=C/C(C)=C/C=C/C(C)=C/C(=O)Nc2ccc(O)cc2)C(C)(C)CCC1 | 13.5 µM and 3.59 µM | 3.68 µM and 4.91 µM | 1.73 µM and 3.39 µM |  | 3.13 µM and 7.54 µM | 4.8 µM and 8.28 µM | 8.48 µM and 10.2 µM |  | 1.19 µM | 0.355 µM |  | 1.5 µM | 1.58 µM | 2.56 µM |  | 2.93 µM | 12.1 µM and 21.4 µM | 0.238 µM | 1.37 µM | 4.61 µM and 12.7 µM
O=C(O)C1c2ccccc2C(C(=O)O)c2ccccc21 (stereo not given) | > 100 µM | > 100 µM | > 100 µM | > 100 µM |  | > 100 µM | > 100 µM | > 100 µM |  |  |  |  |  |  |  |  |  |  |  | 
